Measured values as given in patent US8835425B2, “Use of selective GABA A α5 negative allosteric modulators for the treatment of central nervous system conditions” (Hoffmann-La Roche Inc., priority 2010, dated 2014).
Read-outs that look alike come from different tables or passages of the source.

Tests used:
human GABA A α1β2/3γ2 [1] = target: T1, human GABA A α1β2/3γ2 (Homo sapiens, UniProt P14867+P18507); assay: [3H]flumazenil competition binding, HEK293 cells expressing human α1β2/3γ2; parameters: expressed in transfected cells; host or cells: HEK293; details: for hKi α1/hKi α5: binding selectivity ratio
human GABA A α2β3γ2 [2] = target: T2, human GABA A α2β3γ2 (Homo sapiens, UniProt P18507+P47869); assay: [3H]flumazenil competition binding, HEK293 cells expressing human α2β3γ2; parameters: expressed in transfected cells; host or cells: HEK293; details: for hKi α2/hKi α5: binding selectivity ratio
human GABA A α3β3γ2 [3] = target: T3, human GABA A α3β3γ2 (Homo sapiens, UniProt P18507+P34903); assay: [3H]flumazenil competition binding, HEK293 cells expressing human α3β3γ2; parameters: expressed in transfected cells; host or cells: HEK293; details: for hKi α3/hKi α5: binding selectivity ratio
human GABA A α5β3γ2 [4] = target: T4, human GABA A α5β3γ2 (Homo sapiens, UniProt P18507+P31644); assay: Two-microelectrode voltage clamp, modulation of GABA EC10 response in Xenopus oocytes, α5β3γ2; type: cell-based; parameters: expressed in transfected cells; host or cells: Xenopus laevis oocytes; details: % change of submaximal (EC10) response to GABA at 30×Ki
Method: (§1) Table 2b. […] Effect at human GABA A α5 receptors: % change of a submaximal (EC10) response to GABA determined at 30×Ki value from the flumazenil binding assay.
(§2) Subtype-selective effects were determined on cloned receptors expressed in Xenopus oocytes. Human recombinant GABA A receptors were expressed in Xenopus laevis oocytes. Current responses were evoked in two-microelectrode voltage-clamp condition by applying an EC10 of GABA before and during the co-application of the test compound. Response amplitudes in the presence of the test compound are expressed as percentage of the amplitudes before drug addition.

human GABA A α5β3γ2 [5] = target: T4, human GABA A α5β3γ2; assay: [3H]flumazenil competition binding, HEK293 cells expressing human α5β3γ2; parameters: expressed in transfected cells; host or cells: HEK293
human GABA A α1β2/3γ2 [6] = target: T1, human GABA A α1β2/3γ2; assay: Two-microelectrode voltage clamp, modulation of GABA EC10 response in Xenopus oocytes, α1β2/3γ2; type: cell-based; parameters: expressed in transfected cells; host or cells: Xenopus laevis oocytes; details: % change of EC10 GABA response at 3 μM or at 30×Ki if Ki below 0.1 μM
human GABA A α2β3γ2 [7] = target: T2, human GABA A α2β3γ2; assay: Two-microelectrode voltage clamp, modulation of GABA EC10 response in Xenopus oocytes, α2β3γ2; type: cell-based; parameters: expressed in transfected cells; host or cells: Xenopus laevis oocytes; details: % change of EC10 GABA response at 3 μM or at 30×Ki if Ki below 0.1 μM
Method: as §1, §2

human GABA A α3β3γ2 [8] = target: T3, human GABA A α3β3γ2; assay: Two-microelectrode voltage clamp, modulation of GABA EC10 response in Xenopus oocytes, α3β3γ2; type: cell-based; parameters: expressed in transfected cells; host or cells: Xenopus laevis oocytes; details: % change of EC10 GABA response at 3 μM or at 30×Ki if Ki below 0.1 μM
Method: as §1, §2

[9] = [3H]flumazenil competition, human α1β2/3γ2, read-out: hKi α1
[10] = [3H]flumazenil competition, human α2β3γ2, read-out: hKi α2
[11] = [3H]flumazenil competition, human α3β3γ2, read-out: hKi α3
[12] = [3H]flumazenil competition, human α5β3γ2, read-out: hKi α5

SMILES | Ki (human GABA A α1β2/3γ2 [1]) [nM] | hKi α1/hKi α5 (human GABA A α1β2/3γ2 [1]) | hKi α2/hKi α5 (human GABA A α2β3γ2 [2]) | hKi α3/hKi α5 (human GABA A α3β3γ2 [3]) | Efficacy GABA A α5β3γ2 (human GABA A α5β3γ2 [4]) [%] | Ki (human GABA A α5β3γ2 [5]) [nM] | Ki (human GABA A α2β3γ2 [2]) [nM] | Ki (human GABA A α3β3γ2 [3]) [nM] | Efficacy GABA A α1β2/3γ2 (human GABA A α1β2/3γ2 [6]) [%] | Efficacy GABA A α2β3γ2 (human GABA A α2β3γ2 [7]) | Efficacy GABA A α3β3γ2 (human GABA A α3β3γ2 [8]) | Ki (human GABA A α1β2/3γ2 [1]; [9]) [nM] | Ki (human GABA A α2β3γ2 [2]; [10]) [nM] | Ki (human GABA A α3β3γ2 [3]; [11]) [nM] | Ki (human GABA A α5β3γ2 [5]; [12]) [nM]
FCc1ncn2c1Cn1ncnc1-c1cc(F)ccc1-2 [Compound 8580, 3-Fluoro-10-fluoromethyl-9H-imidazo[1,5-a][1,2,4]triazolo[1,5-d][1,4]benzodiazepine] | 43.9 | 5 | 3 | 3 | −35 | – | – | – | – | – | – | – | – | – | –
Clc1ccc2c(c1)-c1ncnn1Cc1c(Cl)ncn1-2 [Compound 8586, 3,10-Dichloro-9H-imidazo[1,5-a][1,2,4]triazolo[1,5-d][1,4]benzodiazepine] | 15.3 | 7 | 12 | 7 | −33 | 2.1 | 23.7 | 14 | −5 | +2% | +7% | – | – | – | –
N#Cc1ccc2c(c1)-c1ncnn1Cc1c(C(F)F)ncn1-2 [Compound 8582, 3-Cyano-10-difluoromethyl-9H-imidazo[1,5-a][1,2,4]triazolo[1,5-d][1,4]benzodiazepine] | – | 16 | 15 | 6 | −37 | – | – | – | −21 | – | – | 256 | – | – | –
Cc1nc2n(n1)Cc1c(Cl)ncn1-c1ccc(C#N)cc1-2 [Compound 8587, 10-Chloro-3-cyano-6-methyl-9H-imidazo[1,5-a][1,2,4]triazolo[1,5-d][1,4]benzodiazepine] | – | 23 | 13 | 10 | −42 | 10.9 | – | – | −28 | – | – | 250 | 141 | 106 | –
Cc1onc(-c2ccc(F)cn2)c1COc1ccc(C(=O)N2CCS(=O)(=O)CC2)cn1 [Compound V1, (1,1-Dioxo-1λ,6-thiomorpholin-4-yl)-{6-[3-(5-fluoro-pyridin-2-yl)-5-methyl-isoxazol-4-ylmethoxy]-pyridin-3-yl}-methanone] | – | 119 | 44 | 63 | −33 | – | – | – | 0 | +9% | +16% | 143 | 53.3 | 76.1 | 1.2
Cc1onc(-c2ccc(F)cn2)c1COc1ccc(C(=O)NC(C)C)cn1 [Compound U1] | – | – | – | – | −33 | – | – | – | −15 | −34% | −21% | – | – | – | –
Fc1ccc2c(c1)-c1ncnn1Cc1c(Br)ncn1-2 [Compound 8590, 10-Bromo-3-fluoro-9H-imidazo[1,5-a][1,2,4]triazolo[1,5-d][1,4]benzodiazepine] | – | 4 | 7 | 8 | – | – | – | – | – | – | – | – | – | – | –
Cc1onc(-c2ccc(Cl)cc2)c1COc1ccc(C(=O)N2CCOCC2)cn1 [Compound S1, {6-[3-(4-Chloro-phenyl)-5-methyl-isoxazol-4-ylmethoxy]-pyridin-3-yl}-morpholin-4-yl-methanone] | – | 102 | 39 | 41 | – | – | – | – | – | – | – | 551 | 209 | 220 | 5.4
Cc1onc(-c2ccccc2)c1COc1ccc(C(=O)NC(C)C)cn1 [Compound O1, N-Isopropyl-6-(5-methyl-3-phenyl-isoxazol-4-ylmethoxy)-nicotinamide] | – | 388 | 77 | 85 | −50 | – | – | – | −19 | −34% | −43% | 504 | 101 | 110 | 1.3
Cc1onc(-c2ccccn2)c1COc1ccc(C(=O)N2CCOCC2)cn1 [Compound T1, [6-(5-Methyl-3-pyridin-2-yl-isoxazol-4-ylmethoxy)-pyridin-3-yl]-morpholin-4-yl-methanone] | – | 32 | 20 | 27 | −31 | – | – | – | −3 | +5% | +9% | 468 | 293 | 387 | 14.6
FC(F)c1ncn2c1Cn1ncnc1-c1ccccc1-2 [Compound 8583, 10-Difluoromethyl-9H-imidazo[1,5-a][1,2,4]triazolo[1,5-d][1,4]benzodiazepine] | – | 18 | 9 | 7 | – | – | – | – | – | – | – | – | – | – | –
Cc1nc2n(n1)Cc1c(Cl)ncn1-c1ccc(Br)cc1-2 [Compound 8589, 3-Bromo-10-chloro-6-methyl-9H-imidazo[1,5-a][1,2,4]triazolo[1,5-d][1,4]benzodiazepine] | 226 | 37 | 37 | 35 | – | 6.1 | 229 | 216 | – | – | – | – | – | – | –
Cc1nc2n(n1)Cc1c(CF)ncn1-c1ccc(Cl)cc1-2 [Compound 8584, 3-Chloro-10-fluoromethyl-6-methyl-9H-imidazo[1,5-a][1,2,4]triazolo[1,5-d][1,4]benzodiazepine] | – | 50 | 72 | 47 | – | – | – | – | – | – | – | 125 | – | – | –
FC(F)c1ccc2c(c1)-c1ncnn1Cc1c(Cl)ncn1-2 [Compound 8588, 10-Chloro-3-difluoromethyl-9H-imidazo[1,5-a][1,2,4]triazolo[1,5-d][1,4]benzodiazepine] | – | 19 | 37 | 15 | – | – | – | – | – | – | – | – | – | – | –
Cc1onc(-c2ccc(Cl)cn2)c1COc1ccc(C(=O)N2CCSCC2)cn1 [Compound W1, {6-[3-(5-Chloro-pyridin-2-yl)-5-methyl-isoxazol-4-ylmethoxy]-pyridin-3-yl}-thiomorpholin-4-yl-methanone] | – | 87 | 27 | 44 | – | – | – | – | – | – | – | 34.6 | 10.7 | 17.7 | 0.4
Clc1ncn2c1Cn1ncnc1-c1ccccc1-2 [Compound 8585, 10-Chloro-9H-imidazo[1,5-a][1,2,4]triazolo[1,5-d][1,4]benzodiazepine] | – | 14 | 5 | 2 | −41 | – | – | – | −37 | – | – | – | – | – | –
Cc1onc(-c2ccccc2)c1COc1ccc(C(=O)N2CCn3cnnc3C2)cn1 [Compound P1, (5,6-Dihydro-8H-[1,2,4]triazolo[4,3-a]pyrazin-7-yl)-[6-(5-methyl-3-phenyl-isoxazol-4-ylmethoxy)-pyridin-3-yl]-methanone] | – | – | – | – | – | – | – | – | – | – | – | – | – | – | 29.9
